Drawing on patent US20230286970A1, “NOVEL OXADIAZOLE-BASED SELECTIVE HDAC6 INHIBITORS” (ITALFARMACO S.P.A., priority 2020, published 2023), this text covers IC50 for 27 molecules.

The IC50 is the point on the concentration scale where inhibition reaches its midpoint.

For one test, the target named is recombinant human HDAC6 (Homo sapiens (Human), UniProt Q9UBN7). The test can be described thus: Enzymatic screening, HDAC6 inhibition (fluorogenic FdL_G substrate). The class given is biochemical. Put shortly: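 Enzyme was preincubated with compound (8 doses, triplicate, 1% DMSO) in 25 mM Tris-HCl pH 8, 130 mM NaCl, 0.05% Tween-20, 10% glycerol, with BSA. A FLUOR DE LYS-Green substrate was then added, and fluorescence was read after developer plus 2 μM TSA.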

The target in another test is recombinant human HDAC1 (Homo sapiens (Human), UniProt Q13547). The test can be described thus: Enzymatic screening, HDAC1 inhibition (fluorogenic FdL_G substrate). The test is classed as biochemical. Put shortly:
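Recombinant human HDAC1 inhibition was measured fluorometrically using the FLUOR DE LYS-Green (FdL_G) substrate. Compounds at 8 doses (1% DMSO final) in Tris-HCl pH 8 buffer with NaCl, Tween-20 and glycerol were preincubated in triplicate with enzyme and 1 mg/mL BSA, then given substrate. Developer I plus 2 μM TSA was added, and fluorescence read after 25 minutes in the dark.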

Bounds are passed on as bounds.

Chain of recombinant human HDAC6 (Q9UBN7 whole entry): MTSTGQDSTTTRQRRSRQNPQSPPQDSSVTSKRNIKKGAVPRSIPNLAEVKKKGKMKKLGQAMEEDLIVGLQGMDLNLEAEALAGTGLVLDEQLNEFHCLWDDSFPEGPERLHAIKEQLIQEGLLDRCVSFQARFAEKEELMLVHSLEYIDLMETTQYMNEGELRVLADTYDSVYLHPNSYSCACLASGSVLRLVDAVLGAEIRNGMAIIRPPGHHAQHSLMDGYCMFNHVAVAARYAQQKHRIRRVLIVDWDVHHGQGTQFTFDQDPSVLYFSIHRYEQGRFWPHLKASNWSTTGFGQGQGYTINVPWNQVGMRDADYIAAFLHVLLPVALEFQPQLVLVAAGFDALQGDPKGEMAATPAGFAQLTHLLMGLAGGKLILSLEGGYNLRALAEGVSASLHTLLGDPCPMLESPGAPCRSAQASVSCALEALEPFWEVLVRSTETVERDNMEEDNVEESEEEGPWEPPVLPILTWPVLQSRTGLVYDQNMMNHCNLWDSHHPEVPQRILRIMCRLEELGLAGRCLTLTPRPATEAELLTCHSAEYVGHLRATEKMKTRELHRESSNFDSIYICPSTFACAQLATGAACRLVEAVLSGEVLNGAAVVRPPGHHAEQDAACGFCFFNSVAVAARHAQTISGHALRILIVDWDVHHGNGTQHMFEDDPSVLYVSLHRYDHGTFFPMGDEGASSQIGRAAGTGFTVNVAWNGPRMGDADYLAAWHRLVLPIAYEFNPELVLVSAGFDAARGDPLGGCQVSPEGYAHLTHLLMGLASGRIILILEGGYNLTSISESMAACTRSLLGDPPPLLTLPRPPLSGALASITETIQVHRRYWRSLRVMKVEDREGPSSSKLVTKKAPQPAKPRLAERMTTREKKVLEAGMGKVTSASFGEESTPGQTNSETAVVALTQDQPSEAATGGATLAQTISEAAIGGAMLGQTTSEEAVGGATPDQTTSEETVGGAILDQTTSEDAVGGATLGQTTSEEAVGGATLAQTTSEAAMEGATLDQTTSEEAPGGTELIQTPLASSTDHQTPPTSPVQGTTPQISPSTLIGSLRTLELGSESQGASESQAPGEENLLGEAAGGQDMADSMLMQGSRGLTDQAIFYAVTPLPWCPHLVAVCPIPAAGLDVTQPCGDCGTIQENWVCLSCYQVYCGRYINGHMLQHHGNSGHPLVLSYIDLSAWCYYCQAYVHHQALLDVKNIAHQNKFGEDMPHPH
Chain of recombinant human HDAC1 (Q13547 whole entry): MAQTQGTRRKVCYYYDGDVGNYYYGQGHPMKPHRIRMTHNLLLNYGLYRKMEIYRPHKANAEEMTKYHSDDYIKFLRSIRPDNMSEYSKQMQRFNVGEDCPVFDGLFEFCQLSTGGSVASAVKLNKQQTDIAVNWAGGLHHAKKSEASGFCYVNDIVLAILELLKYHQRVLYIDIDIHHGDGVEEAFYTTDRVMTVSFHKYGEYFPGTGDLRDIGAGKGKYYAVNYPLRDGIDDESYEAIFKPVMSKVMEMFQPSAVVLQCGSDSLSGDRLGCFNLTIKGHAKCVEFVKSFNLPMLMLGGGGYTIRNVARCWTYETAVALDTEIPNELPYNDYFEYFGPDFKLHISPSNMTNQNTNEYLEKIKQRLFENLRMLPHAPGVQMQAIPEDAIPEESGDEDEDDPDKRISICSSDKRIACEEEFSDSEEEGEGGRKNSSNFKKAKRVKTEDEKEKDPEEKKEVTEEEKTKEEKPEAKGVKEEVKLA

As to `NC(=O)c1cccc(-c2nc(Cc3ccc(-c4nnc(C(F)F)o4)cc3)no2)c1` [compound 262, 3-(3-(4-(5-(difluoromethyl)-1,3,4-oxadiazol-2-yl)benzyl)-1,2,4-oxadiazol-5-yl)benzamide], the concentration for half-maximal inhibition (IC50) is 488 nM on recombinant human HDAC6 and more than 200000 nM on recombinant human HDAC1.

As to `Nc1ccc(-c2cn(C(COc3ccccc3)c3ccc(-c4nnc(C(F)F)o4)cc3)nn2)cn1` (stereo not drawn) [compound 236, 5-(1-(1-(4-(5-(difluoromethyl)-1,3,4-oxadiazol-2-yl)phenyl)-2-phenoxyethyl)-1H-1,2,3-triazol-4-yl)pyridin-2-amine], the IC50 on recombinant human HDAC6 is 206 nM; on recombinant human HDAC1, more than 200000 nM.

For `CS(=O)(=O)NCC[C@@H](c1ccc(-c2nnc(C(F)F)o2)cc1)n1cc(-c2ccc(N)nc2)nn1` [compound 310, N-[(3S)-3-[4-(6-aminopyridin-3-yl)triazol-1-yl]-3-[4-[5-(difluoromethyl)-1,3,4-oxadiazol-2-yl]phenyl]propyl]methanesulfonamide], the IC50 on recombinant human HDAC6 was 138 nM; at recombinant human HDAC1, more than 1e+06 nM.

Consider `Fc1cccc(-c2cn(Cc3ccc(-c4nnc(C(F)F)o4)cc3)nn2)c1` [compound 248, 2-(difluoromethyl)-5-(4-((4-(3-fluorophenyl)-1H-1,2,3-triazol-1-yl)methyl)phenyl)-1,3,4-oxadiazole], for which the IC50 on recombinant human HDAC6 was 275 nM; at recombinant human HDAC1 it was more than 200000 nM.

Regarding `O=C1NCCc2ccc(-c3nnn(Cc4ccc(-c5nnc(C(F)F)o5)cc4)n3)cc21` [compound 83, 7-[2-[[4-[5-(difluoromethyl)-1,3,4-oxadiazol-2-yl]phenyl]methyl]tetrazol-5-yl]-3,4-dihydro-2H-isoquinolin-1-one], the IC50 at recombinant human HDAC6 is 33 nM; on recombinant human HDAC1, more than 200000 nM.

Consider `FC(F)c1nnc(-c2ccc(Cn3cc(-c4cnc5cccnn45)nn3)nc2)o1` [compound 74, 2-(difluoromethyl)-5-(6-((4-(imidazo[1,2-b]pyridazin-3-yl)-1H-1,2,3-triazol-1-yl)methyl)pyridin-3-yl)-1,3,4-oxadiazole], for which the IC50 at recombinant human HDAC6 was 31 nM; on recombinant human HDAC1 it was more than 200000 nM.

For the molecule `Nc1ccc(-c2cn(Cc3ccc(-c4nnc(C(F)F)o4)cc3)nn2)cc1` [compound 121, 4-(1-(4-(5-(difluoromethyl)-1,3,4-oxadiazol-2-yl)benzyl)-1H-1,2,3-triazol-4-yl)aniline], the half-maximal inhibitory concentration (IC50) on recombinant human HDAC6 was 45 nM; on recombinant human HDAC1, more than 200000 nM.

`Nc1cccc(-c2cn(Cc3ccc(-c4nnc(C(F)F)o4)cc3)cn2)c1` [compd. 197, 3-(1-(4-(5-(difluoromethyl)-1,3,4-oxadiazol-2-yl)benzyl)-1H-imidazol-4-yl)aniline]: the IC50 is 107 nM at recombinant human HDAC6 and more than 200000 nM at recombinant human HDAC1.

Take `CN1CCN(c2ccc(-c3nnn(Cc4ccc(-c5nnc(C(F)F)o5)cc4)n3)cn2)CC1` [compound 212, 2-(difluoromethyl)-5-(4-((5-(6-(4-methylpiperazin-1-yl)pyridin-3-yl)-2H-tetrazol-2-yl)methyl)phenyl)-1,3,4-oxadiazole]: the figures for the IC50 on recombinant human HDAC6 and at recombinant human HDAC1 were 147 nM and more than 200000 nM, respectively.

`Nc1nc2ccc(-c3cn(Cc4cc(F)c(-c5nnc(C(F)F)o5)cc4F)nn3)cc2s1` [compound 343, 6-[1-[[4-[5-(difluoromethyl)-1,3,4-oxadiazol-2-yl]-2,5-difluorophenyl]methyl]triazol-4-yl]-1,3-benzothiazol-2-amine]: the IC50 was 31 nM on recombinant human HDAC6 and more than 1e+06 nM at recombinant human HDAC1.

Take `Nc1nc2ccc(-c3cnn(Cc4ccc(-c5nnc(C(F)F)o5)cn4)c3)cc2s1` [compound 327, 6-[1-[[5-[5-(difluoromethyl)-1,3,4-oxadiazol-2-yl]pyridin-2-yl]methyl]pyrazol-4-yl]-1,3-benzothiazol-2-amine]: the concentration for half-maximal inhibition (IC50) at recombinant human HDAC6 was 40 nM; on recombinant human HDAC1, more than 1e+06 nM.

Take `[2H]C([2H])(c1ccc(-c2nnc(C(F)F)o2)cn1)n1cc(-c2ccc3nc(N)sc3c2)nn1` [compound 376, 6-[1-[dideuterio-[5-[5-(difluoromethyl)-1,3,4-oxadiazol-2-yl]pyridin-2-yl]methyl]triazol-4-yl]-1,3-benzothiazol-2-amine]: the half-maximal inhibitory concentration (IC50) on recombinant human HDAC6 is 9 nM; at recombinant human HDAC1 it was more than 1e+06 nM.

`O=C1Nc2cc(-c3nnn(Cc4ccc(-c5nnc(C(F)F)o5)cc4)n3)ccc2NC12CCCCC2` [compound 209, 6′-(2-(4-(5-(difluoromethyl)-1,3,4-oxadiazol-2-yl)benzyl)-2H-tetrazol-5-yl)-1′,4′-dihydro-3′H-spiro[cyclohexane-1,2′-quinoxalin]-3′-one]: the IC50 at recombinant human HDAC6 is 133 nM; on recombinant human HDAC1, more than 200000 nM.

Consider `CC(c1ccc(-c2nnc(C(F)F)o2)c(F)c1)n1cc(-c2cccc(NC(=O)N3CCOCC3)c2)nn1` (stereo not drawn) [compound 189, N-(3-(1-(1-(4-(5-(difluoromethyl)-1,3,4-oxadiazol-2-yl)-3-fluorophenyl)ethyl)-1H-1,2,3-triazol-4-yl)phenyl)morpholine-4-carboxamide], for which the half-inhibitory concentration (IC50) was 99 nM on recombinant human HDAC6 and more than 200000 nM on recombinant human HDAC1.

For the molecule `CN1CCc2ccc(-c3nnn(Cc4ccc(-c5nnc(C(F)F)o5)cc4)n3)cc2C1=O` [compound 173, 7-(2-(4-(5-(difluoromethyl)-1,3,4-oxadiazol-2-yl)benzyl)-2H-tetrazol-5-yl)-2-methyl-3,4-dihydroisoquinolin-1 (2H)-one], the IC50 at recombinant human HDAC6 was 86 nM; on recombinant human HDAC1, more than 200000 nM.

As for `O=C(Nc1cccc(-c2cn(Cc3ccc(-c4nnc(C(F)F)o4)cc3F)nn2)c1)N1CCOCC1` [compound 47, N-(3-(1-(4-(5-(difluoromethyl)-1,3,4-oxadiazol-2-yl)-2-fluorobenzyl)-1H-1,2,3-triazol-4-yl)phenyl)morpholine-4-carboxamide], the concentration for half-maximal inhibition (IC50) at recombinant human HDAC6 was 21 nM; at recombinant human HDAC1 it was more than 30000 nM.

`Nc1nc2ccc(-c3cn(Cc4ccc(-c5nnc(C(F)F)o5)cc4F)nn3)cc2s1` [compound 339, 6-[1-[[4-[5-(difluoromethyl)-1,3,4-oxadiazol-2-yl]-2-fluorophenyl]methyl]triazol-4-yl]-1,3-benzothiazol-2-amine]: the concentration for half-maximal inhibition (IC50) was 24 nM on recombinant human HDAC6 and more than 1e+06 nM at recombinant human HDAC1.

In the case of `Nc1nc2cc(-c3cnn(Cc4ccc(-c5nnc(C(F)F)o5)cc4)c3)ccc2[nH]1` [compound 332, 5-[1-[[4-[5-(difluoromethyl)-1,3,4-oxadiazol-2-yl]phenyl]methyl]pyrazol-4-yl]-1H-benzimidazol-2-amine], the half-inhibitory concentration (IC50) at recombinant human HDAC6 is 67 nM; at recombinant human HDAC1, more than 1e+06 nM.

With `Nc1ccc(-c2nnnn2Cc2ncc(-c3nnc(C(F)F)o3)cn2)cn1` [compound 290, 5-(1-((5-(5-(difluoromethyl)-1,3,4-oxadiazol-2-yl)pyrimidin-2-yl)methyl)-1H-tetrazol-5-yl)pyridin-2-amine], the IC50 on recombinant human HDAC6 was 68 nM; on recombinant human HDAC1, more than 200000 nM.

For the molecule `FC(F)c1nnc(-c2ccc(Cc3nc(-c4ccc(NC5=NCCN5)cc4)no3)cc2)o1` [compound 379, N-[4-[5-[[4-[5-(difluoromethyl)-1,3,4-oxadiazol-2-yl]phenyl]methyl]-1,2,4-oxadiazol-3-yl]phenyl]-4,5-dihydro-1H-imidazol-2-amine], the IC50 is 17 nM on recombinant human HDAC6 and more than 1e+06 nM on recombinant human HDAC1.

In the case of `CNc1ncc2cc(-c3cn(Cc4ccc(-c5nnc(C(F)F)o5)c(F)c4F)nn3)ccc2n1` [compound 389, 6-[1-({4-[5-(difluoromethyl)-1,3,4-oxadiazol-2-yl]-2,3-difluorophenyl}methyl)-1H-1,2,3-triazol-4-yl]-N-methylquinazolin-2-amine], the concentration for half-maximal inhibition (IC50) at recombinant human HDAC6 was 192 nM; at recombinant human HDAC1, 1e+06 nM.

On to `O=C1Nc2ccc(-c3cn(Cc4ccc(-c5nnc(C(F)F)o5)cc4)nn3)cc2NC12CCNCC2` [compound 271, 7′-(1-(4-(5-(difluoromethyl)-1,3,4-oxadiazol-2-yl)benzyl)-1H-1,2,3-triazol-4-yl)-1′,4′-dihydro-3′H-spiro[piperidine-4,2′-quinoxalin]-3′-one], for which the results for the half-inhibitory concentration (IC50) on recombinant human HDAC6 and on recombinant human HDAC1 were 43 nM and more than 200000 nM, respectively.

In the case of `Nc1cc(-c2nnn(Cc3ccc(-c4nnc(C(F)F)o4)cc3)n2)ccc1O` [compound 35, 2-amino-4-(2-(4-(5-(difluoromethyl)-1,3,4-oxadiazol-2-yl)benzyl)-2H-tetrazol-5-yl)phenol], the 50% inhibitory concentration (IC50) at recombinant human HDAC6 was 16 nM; on recombinant human HDAC1, more than 200000 nM.

For `O=C1Nc2ccc(-c3cn(Cc4ccc(-c5nnc(C(F)F)o5)cn4)nn3)cc2C12CCCC2` [Compd. 26, 5′-(1-((5-(5-(difluoromethyl)-1,3,4-oxadiazol-2-yl)pyridin-2-yl)methyl)-1H-1,2,3-triazol-4-yl)spiro[cyclopentane-1,3′-indolin]-2′-one], the IC50 on recombinant human HDAC6 is 8 nM; on recombinant human HDAC1, more than 200000 nM.

As to `FC(F)c1nnc(-c2ccc(Cn3nnc(-c4ccc5ccncc5c4)n3)cc2)o1` [compound 127, 2-(difluoromethyl)-5-(4-((5-(isoquinolin-7-yl)-2H-tetrazol-2-yl)methyl)phenyl)-1,3,4-oxadiazole], the 50% inhibitory concentration (IC50) is 49 nM at recombinant human HDAC6 and more than 200000 nM on recombinant human HDAC1.

For `CS(=O)(=O)NCC(c1ccc(-c2nnc(C(F)F)o2)cc1)n1cc(-c2ccc(N)nc2)nn1` (stereo not drawn) [compound 302, N-[2-[4-(6-aminopyridin-3-yl)triazol-1-yl]-2-[4-[5-(difluoromethyl)-1,3,4-oxadiazol-2-yl]phenyl]ethyl]methanesulfonamide], the half-inhibitory concentration (IC50) on recombinant human HDAC6 was 49 nM; on recombinant human HDAC1, more than 1e+06 nM.

`Nc1ccc(-c2noc(Cc3ccc(-c4nnc(C(F)F)o4)c(F)c3)n2)cc1` [compound 408, 4-(5-(4-(5-(difluoromethyl)-1,3,4-oxadiazol-2-yl)-3-fluorobenzyl)-1,2,4-oxadiazol-3-yl)aniline]: the results for the 50% inhibitory concentration (IC50) on recombinant human HDAC6 and at recombinant human HDAC1 were 80 nM and more than 1e+06 nM, respectively.
